{"source": "patent US20240091227A1", "about": "“Use Of 2-Phenyl-6-(1H-Imidazol-1-YL) Quinazoline For Treating Neurodegenerative Diseases, Preferably Alzheimer's Disease” (ROTTAPHARM BIOTECH S.R.L., priority 2019, published 2024)", "key": {"[1]": {"test_system": "Iba1-positive microglial cells", "assay": "Spinal microglia activation (Iba1 immunofluorescence) in CFA inflammatory model", "type": "in vivo, rat", "conditions": "rats, 6 mg/kg os single administration 72 hours post-CFA, evaluated after 90 minutes", "protocol": "FIG. 2 reports the results of spinal microglia activation at 72 hours following CFA injection. The quantification of microglia activation in ipsilateral L5 SC dorsal horn was determined as the number of Iba1-positive microglia, displaying a clearly swollen cell body with reduced processes, within the analyzed selected frame of the superficial laminae. Data represent the mean of 5 animals/group. Ordinary one way ANOVA followed by Dunnet's multiple comparison (**p<0.05).\nMicroglial cells activation was evaluated by immunofluorescence staining, measuring the expression of ionized calcium-binding adapter molecule 1 (Iba-1) in ipsilateral L5 spinal cord in complete Freund's adjuvant (CFA) model. […]\nCR4056 (6 mg/kg, os) was administered 72 hours post-CFA and after 90 minutes animals were deeply anesthetized with an overdose of urethane (1.5 g·kg−1, i.p.) and then transcardially perfused with 250 mL 0.9% saline containing 1% heparin (5000 UI·mL−1), followed by 500 mL 10% formalin (i.e., 4% paraformaldehyde, Bio-Optica Spa, Milan, Italy). […] For each section, a representative image of both the ipsilateral and the contralateral dorsal horn (laminae I-III) of the L5 spinal cord was captured at 20× magnification, using consistent exposure times across all sections, and then analysed. […] For each animal (n=5 per group) 6 non-consecutive sections were analysed and results were averaged."}, "[2]": {"test_system": "PKCε", "assay": "PKCε translocation to the plasma membrane in cultured dorsal root ganglia neurons", "type": "cell-based, rat", "conditions": "for IC50: rat DRG neurons", "protocol": "FIG. 1 reports the time-course (A) and washout (B) of CR4056 effect on PKCF translocation induced by bradykinin (BK 1 μM). In Panel A, open symbols represent the percentage of neurons positive for PKCF translocation following BK stimulation in absence of the drug. Filled symbols represent neurons pre-incubated with CR4056 ([…]) for different times before the stimulation for 30 seconds with BK+CR4056. The first filled symbol indicates the effect of CR4056 co-incubated for 30 seconds with BK, the second filled symbol indicates 10 seconds of pre-incubation of CR4056, and the last indicates 24 hours of pre-incubation of CR4056. […] In Panel B, BK-induced PKCF translocation was evaluated before (open symbol) and after pre-incubation of CR4056 ([…]) at different time intervals (from 10 minutes to 8 hours) (filled symbols). The first datapoint was obtained at the end of the 10 minute pre-incubation, when CR4056 was still present. The subsequent datapoints were obtained after extensive rinsing to ensure complete removal of the drug from extracellular solution (n=3).\nRat dorsal root ganglia (DRGs) were obtained from freshly isolated spines after carefully removing nerve trunks and connective tissue. Larger ganglia, chopped into 2-4 smaller pieces were then incubated for 1 hour at 37° C. in 0.125% collagenase (Worthington, Freehold, NJ) dissolved in Dulbecco's modified Eagle's medium (DMEM) containing 10% fetal bovine serum (FBS) plus 1% penicillin/streptomycin and 1% L-glutamine (Euroclone, Milan, Italy). After enzymatic digestion, ganglia were mechanically dissociated and neurons plated at a density such that neurons would cover about 30% of coverslip surface in a single layer, in petri dishes containing wells with a glass bottom coverslip (pre-coated with 10 μg/mL poly-L-lysine and 20 µg/ml laminin, Sigma-Aldrich, Milan, Italy). Cells were incubated for 2-3 days in DMEM as described above, plus 1.5 μg/ml cytosine 1-d-arabinofuranoside (ARA-C, Sigma-Aldrich) to slow down proliferation of non neuronal cells, and 100 ng/ml nerve growth factor (NGF, Sigma-Aldrich) to increase cell health and the and the expression of receptors which are linked to PKCF translocation upon stimulation. Activation of membrane receptors coupled to phospholipase C pathway leads to PKCF translocation from cytoplasm to the plasma membrane. In order to study PKCε behaviour a well established technique was employed (Vellani V, Neuroscience, 2006). […] CR4056 was pre-applied in the culture medium for 10 min or co-applied with the stimulus. After fixation, cells were permeabilized with 0.2% Triton X-100 (Sigma-Aldrich, Milan, Italy) and exposed overnight to a rabbit polyclonal antibody highly specific for PKCF. After extensive rinsing, PKCF was visualized with a secondary antibody (1:200 dilution Alexa Fluor 488 goat anti-rabbit, Thermo Fisher Scientific, Monza, Italy) applied for 2-4 hours at room temperature in the dark Cells showing PKCF translocation were detected with a confocal microscope (Leica SP2, Leica, Switzerland) by measuring fluorescence intensity along a line drawn through the cytoplasm and the membrane, thus avoiding the nucleus. Neurons in which fluorescence intensity at the plasma membrane throughout the cell was 1.5-fold or higher than the mean cytoplasmic intensity were considered positive."}, "[3]": {"conditions": "10 μM, 10 minute application, then washout"}}, "note": "“Also recorded” adds a separate entry of the source. Like-named read-outs stand apart in the source and are kept apart here."}
{"smiles": "c1ccc(-c2ncc3cc(-n4ccnc4)ccc3n2)cc1", "note": "[CR4056, 2-phenyl-6-(1H-imidazol-1-yl)quinazoline]", "values": [{"measurement": "Microglia activation in ipsilateral L5 spinal cord dorsal horn (Iba1-positive activated microglia)", "setting": "[1]", "value": "completely restored the basal conditions of microglia; also recorded: significantly reduced microglia activation"}, {"measurement": "Time after washout during which the effect remained unchanged", "setting": "[2]; [3]", "value": "up to 1 hour"}, {"measurement": "Time after washout to complete reversal of the effect", "setting": "[2]; [3]", "value": "3 to 4", "unit": "h"}, {"measurement": "Influence of preincubation time on inhibition of PKCF translocation", "setting": "[2]; 10 μM, preincubation prolonged up to 24 hours or reduced to 10 seconds", "value": "did not change the extent of the effect"}, {"measurement": "Effect on BK-induced PKCF translocation, time-course (FIG. 1A)", "setting": "[2]; CR4056 10 M, co-incubation 30 seconds to 24 hours pre-incubation, BK 1 μM, t-test p<0.05, n=6", "value": "highly significant at all times"}, {"measurement": "Concentration at which the dose-response curves approached saturation", "setting": "[2]; CR4056 applied for 10 minutes", "value": "about 10 μM"}, {"measurement": "IC50", "setting": "[2]; bradykinin stimulus, read-out: IC50, inhibition of PKCF translocation obtained with BK", "value": 200, "unit": "nM"}, {"measurement": "IC50", "setting": "[2]; prokineticin 2 stimulus, read-out: IC50, inhibition of PKCF translocation obtained with PK2", "value": 170, "unit": "nM"}]}
